From publication PMC7822874, “Chemoprotective antimalarials identified through quantitative high-throughput screening of Plasmodium blood and liver stage parasites” (Scientific Reports, 2021)
Where two headings read alike, the source gives them in different places.

Key:
in vitro = details: human
[1] = test system: Plasmodium falciparum Dd2 asexual blood stage parasites; experiment: microbe, parasite or virus in culture; parameters: species or system Plasmodium falciparum Dd2 in human erythrocytes; single determination (one 11-point concentration-response curve); details: Plasmodium falciparum, DD2, Erythrocyte, 72 h; read-out: AC50
[2] = test system: P. berghei-ANKA-GFP-LucCON liver stage parasites in HepG2-A16-CD81EGFP cells; experiment: P. berghei liver stage Pb-Luc assay, Method 1 (UCSD, 1536-well); assay type: cell-based, Plasmodium berghei; details: for activity at 1 µM / activity at 3 µM: 48 h, average of 2 wells on a 1536 well plate; for activity at 1 µM: 1 uM (compounds provided at 10 mM); for activity at 3 µM: 3 uM (compounds provided at 10 mM); for Max Resp (signal direction of the dose response) / AC50 / Log AC50 (M): Method 1; for Max Resp (signal direction of the dose response): Decrease = decreasing P. berghei viability with dose, Increase = increasing signal, Inactive = no dose response
[3] = HepG2-A16-CD81EGFP cells, uninfected
[4] = Plasmodium berghei, column 11, read-out: Pb-Luc (P. berghei liver stage), % of control, lower concentration, first repeat
[5] = Plasmodium berghei, column 12, read-out: Pb-Luc (P. berghei liver stage), % of control, lower concentration, second repeat
[6] = Plasmodium berghei, column 8, read-out: Pb-Luc (P. berghei liver stage), % of control, higher concentration, first repeat
[7] = Plasmodium berghei, column 9, read-out: Pb-Luc (P. berghei liver stage), % of control, higher concentration, second repeat
[8] = Hill fit, 50% of maximum activity response, read-out: AC50
[9] = log10 of molar AC50 from Hill fit
[10] = Plasmodium berghei, Hill fit, 50% of maximum activity response, read-out: AC50
[11] = Plasmodium berghei, log10 of molar AC50 from Hill fit, read-out: Log AC50 (converted)

Row | SMILES | viability at 48 h, 1 µM (in vitro; [3]) [%] | viability at 48 h, 3 µM (in vitro; [3]) [%] | AC50 [1] [nM] | activity at 1 µM [2, 4] [%] | activity at 1 µM [2, 5] [%] | activity at 3 µM [2, 6] [%] | activity at 3 µM [2, 7] [%] | viability at 48 h (in vitro; [3]) [%] | Max Resp (signal direction of the dose response) [2] | AC50 [2, 8] [nM] | Log AC50 (M) [2, 9] [M] | AC50 [2, 10] [nM] | AC50 [2, 11] [nM] | viability at 66 h (in vitro; [3]) [%] | viability at 66 h (in vitro) [%]
1 | CC(C)(C)CC(C)(C)c1ccc(O)c(CN2CCN(CCC#N)CC2)c1 [MLS000026875-01] | 112 | 97 | 841 | 129 | 117 | 119 | 112 |  |  |  |  |  |  |  | 
2 | Cc1cc(NC2C3CC4CC(C3)CC2C4)n2nnnc2n1 (stereo not shown) [MLS000033680-01] | 99 | 108 |  | 124 | 128 | 108 | 131 |  |  |  |  |  |  |  | 
3 | CCNc1nc(OC)nc(Oc2ccc(=O)n(-c3ccccc3)n2)n1 [MLS000034902-01] | 112 | 101 | 5960 | 118 | 109 | 117 | 126 |  |  |  |  |  |  |  | 
4 | Cc1[nH]c2c(C)cccc2c(=O)c1Br [MLS000036254-01] | 107 |  | 5310 |  |  |  |  | 107 | Decrease | 1580 | -5.800 | 1120 | 1120 |  | 
5 | c1cncc(-c2nnc(-c3cccnc3)nn2)c1 [MLS000075752-01] | 98 | 100 |  | 110 | 109 | 109 | 117 |  |  |  |  |  |  |  | 
6 | C=C(C)COc1ccc(-c2n[nH]cc2-c2ccc(OC)c(OC)c2)c(O)c1 [MLS000084580-01] |  |  | 6680 |  |  |  |  |  | Decrease |  |  | 501 | 501 | 36 | 
7 | COc1ccc(NC2=NC3(CCCCC3)N=C(N)N2)cc1 [MLS000090248-01] | 113 | 97 |  | 133 | 110 | 100 | 80 |  |  |  |  |  |  |  | 
8 | CCOC(=O)CCCCC(=O)c1[nH]c(=O)[nH]c1Cn1ccnc1 [MLS000092014-01] | 98 | 107 | 2660 | 140 | 105 | 84 | 105 |  |  |  |  |  |  |  | 
9 | Oc1cc(Cc2ccccc2)cnc1CN1CCCCC1 [MLS000104838-01] | 98 | 105 | 944 | 128 | 110 | 97 | 103 |  |  |  |  |  |  |  | 
10 | Cc1ccc(Oc2ccc(NC(=O)c3ccco3)cc2)cc1 [MLS000111237-01] |  |  | 10600 |  |  |  |  |  | Decrease | 158 | -6.800 | 100 | 100 | 95.1 | 
11 | O=C(CN1CCN(C(=O)c2ccco2)CC1)Nc1cc(Cl)ccc1Cl [MLS000122513-01] |  |  | 5960 |  |  |  |  |  | Inactive |  |  |  |  | 97.6 | 
12 | COc1ccccc1NC(=O)CN1CCN(C(=O)c2ccco2)CC1 [MLS000122729-01] | 101 | 101 |  | 130 | 101 | 50 | 80 |  |  |  |  |  |  |  | 
13 | COc1cccc(CNCC(O)(c2ccc(Cl)cc2)c2ccc(Cl)cc2)c1 [MLS000325699-01] | 106 | 101 |  | 124 | 99 | 99 | 98 |  |  |  |  |  |  |  | 
14 | COc1ccccc1CNCC(O)(c1ccc(Cl)cc1)c1ccc(Cl)cc1 [MLS000325719-01] | 95 | 101 | 1500 | 101 | 103 | 108 | 98 |  |  |  |  |  |  |  | 
15 | Cc1ccc(NC(=O)c2cc(C(=O)c3cc(Cl)ccc3O)cn(-c3ccc(C)cc3)c2=O)cc1 [MLS000374606-01] | 106 | 93 | 422 | 98 | 87 | 59 | 61 |  |  |  |  |  |  |  | 
16 | COc1cc(Cl)c(C)cc1NC(C)C(=O)Nc1cc(C(F)(F)F)ccc1N1CCOCC1 (stereo not shown) [MLS000375301-01] | 109 | 94 | 422 | 124 | 129 | 103 | 103 |  |  |  |  |  |  |  | 

Row | SMILES | viability at 48 h, 1 µM (in vitro; [3]) [%] | viability at 48 h, 3 µM (in vitro; [3]) [%] | AC50 [1] [nM] | activity at 1 µM [2, 4] [%] | activity at 1 µM [2, 5] [%] | activity at 3 µM [2, 6] [%] | activity at 3 µM [2, 7] [%] | viability at 48 h (in vitro; [3]) [%] | Max Resp (signal direction of the dose response) [2] | AC50 [2, 8] [nM] | Log AC50 (M) [2, 9] [M] | AC50 [2, 10] [nM] | AC50 [2, 11] [nM] | viability at 66 h (in vitro; [3]) [%] | viability at 66 h (in vitro) [%]
17 | Nc1cc[n+](CC(=O)c2ccc3c(c2)OCCO3)cc1 [MLS000391090-01] | 97.8 |  | 13300 |  |  |  |  | 97.8 | Inactive |  |  |  |  |  | 
18 | COc1ccc(C)cc1N(C(=O)COc1cccc(F)c1)c1nc2ccccc2s1 [MLS000394477-01] | 91 | 106 | 5960 | 105 | 106 | 107 | 110 |  |  |  |  |  |  |  | 
19 | CCOC(=O)c1c(NC(=O)c2ccccc2)sc2c(O)c(CN(CC)CC)ccc12 [MLS000523141-01] | 91 | 102 | 150 | 104 | 107 | 99 | 98 |  |  |  |  |  |  |  | 
20 | CCOC(=O)c1cnc2c(C)cc(C)cc2c1O [MLS000530578-01] |  |  | 4220 |  |  |  |  |  |  |  |  | 1410 | 1410 |  | 104
21 | CCOC(=O)c1nnn(-c2nonc2-n2cccc2)c1CN1CCC(C(=O)OCC)CC1 [MLS000538888-01] | 108 | 103 | 4730 | 103 | 96 | 92 | 82 |  |  |  |  |  |  |  | 
22 | CC1=C(CC(=O)c2ccc(Cl)cc2)C(=O)c2ccccc2C1=O [MLS000543314-01] | 105 | 100 | 211 | 78 | 79 | 77 | 70 |  |  |  |  |  |  |  | 
23 | CCCOc1ccc(CCc2nnc(S)n2Cc2ccccc2)cc1 [MLS000562311-01] | 122 | 100 | 5310 | 157 | 149 | 161 | 162 |  |  |  |  |  |  |  | 
24 | COCC(C)n1c(C)cc(C(=O)CSc2nnc(Nc3ccccc3F)s2)c1C (stereo not shown) [MLS000566129-01] | 95 | 101 | 2990 | 126 | 124 | 118 | 120 |  |  |  |  |  |  |  | 
25 | CC(C)(C)N1C(=O)c2ccc(C(=O)Nc3ccc(-c4nc5ccccc5[nH]4)cc3)cc2C1=O [MLS000567491-01] | 94 | 108 | 6680 | 114 | 117 | 141 | 128 |  |  |  |  |  |  |  | 
26 | CC(C)COc1ccc(C(=O)N/C(=C\c2cccc([N+](=O)[O-])c2)C(=O)OC(C)C)cc1 [MLS000574251-01] | 111 | 102 | 531 | 90 | 84 | 65 | 69 |  |  |  |  |  |  |  | 
27 | O=C(Nc1cccnc1)c1cc(-c2cccnc2)nc2ccc(Br)cc12 [MLS000582206-01] | 109 | 104 | 2660 | 112 | 106 | 80 | 95 |  |  |  |  |  |  |  | 
28 | CCCc1ccc(OCc2nc(-c3ccc(NC(=O)c4cccs4)cc3)no2)cc1 [MLS000584893-01] | 97.2 |  | 15000 |  |  |  |  | 97.2 | Decrease |  |  | 1410 | 1410 |  | 
29 | Fc1ccc(-c2csc3ncnc(Cl)c23)cc1 [MLS000590541-01] | 111 | 101 | 3350 | 115 | 105 | 120 | 132 |  |  |  |  |  |  |  | 
30 | OCCNc1nc(Nc2ccc(Br)cc2)nc2ccccc12 [MLS000625070-01] |  |  | 2660 |  |  |  |  |  | Decrease | 2240 | -5.650 | 1410 | 1410 | 97 | 
31 | COc1ccc(Cc2nnc(NC(=O)c3ccc(OC)cc3OC)s2)cc1 [MLS001211969-01] | 100 | 104 |  | 125 | 130 | 128 | 128 |  |  |  |  |  |  |  | 
